PubChem BioAssay AID720588 (Broad Institute, 2013)

Each molecule was assayed on HEK293T viability, CellTiter-Glo ATP luminescence, 72 h (assay: HEK293T cell cytotoxicity, dose response, cytotoxicity control, CellTiter-Glo luminescence, cherry-pick, set 3 (AID 720588);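 further: potency for luminescence loss meaning cytotoxic compounds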).

Going from `Cc1ccccc1S(=O)(=O)N1CC[C@@H]2[C@@H](CO)Nc3ccc(-c4ccc(C#N)cc4)cc3[C@@H]21` to `CO[C@H]1CN(C)C(=O)c2ccc(NC(=O)c3ccc(-c4ccccc4)cc3)cc2OC[C@H](C)NC[C@H]1C`, the AC35 falls from 14.8 µM to 8.64 µM (1.7-fold).

`Cc1nn(Cc2ccccc2Cl)c2sc(C(=O)Nc3ccccc3N3CCOCC3)cc12` and `O=C(Nc1ccccc1F)N1CCCCN2[C@H](CO)[C@H](c3ccc(/C=C/c4ccccc4)cc3)[C@H]2C1` are within 1.5-fold of each other in AC35: 15.9 µM for the first, 13.7 µM for the second.

Going from `CN(C)CC1CCC/C(=C\c2ccc(OC(=O)c3ccc(Cl)cc3)cc2)C1=O` (configuration not stated) to `C[C@H]1CN([C@@H](C)CO)C(=O)c2cc(N(C)C)ccc2O[C@@H]1CN(C)Cc1ccc(C(=O)Nc2ccccc2N)cc1`, the AC35 rises from 11.3 µM to 24.8 µM (2.2-fold).

Compared with `C[C@@H]1CN([C@@H](C)CO)S(=O)(=O)c2ccc(C#CC(C)(C)O)cc2O[C@H]1CN(C)Cc1ccc(-c2ccccc2)cc1`, `C[C@@H]1CN([C@H](C)CO)C(=O)c2cc(C#CCN(C)C)cnc2O[C@H]1CN(C)Cc1ccc(-c2ccccc2)cc1` is 1.9-fold higher in AC35: 6.7 µM for the first, 12.4 µM for the second.

Going from `CCCN1C/C(=C/c2ccc3c(c2)OCO3)C(=O)/C(=C/c2ccc3c(c2)OCO3)C1` to `C(=Cc1nc2ccccc2o1)c1ccc2c(c1)OCO2`, the AC35 falls from 21.2 µM to 2.47 µM (8.6-fold).

`O=c1c(Cl)cc(Cl)nn1-c1ccccc1` and `CC1=NN(c2ccc(C)cc2)C(=O)/C1=C\C=C\c1ccccc1` are within 1.5-fold of each other in AC35: 19.2 µM for the first, 14.3 µM for the second.

`COc1ccc(-c2cnc3c(NC=O)cc(-c4ccccc4OC)cn23)cc1OC` and `COc1ccc(-c2cn(-c3ccc(OC)cc3)c3[n+]2-c2ccccc2CC3)cc1` are within 1.5-fold of each other in AC35: 9.05 µM for the first, 7.06 µM for the second.

Compared with `CC(=NNc1cc(C)c2ccccc2n1)c1ccccn1`, `C/C(=N\Nc1cccc2cccnc12)c1ccccn1` is 5.9-fold higher in AC35: 2 µM for the first, 11.8 µM for the second.

Going from `CC1(C)N=C(N)N=C(N)N1c1ccc(CCCCc2ccccc2)cc1` to `CCCCc1c(Cc2ccccc2)ncn1CCc1ccccc1OC`, the AC35 rises from 3.5 µM to 20.7 µM (5.9-fold).

Compared with `CCN1/C(=C/C=C/c2oc3ccc(-c4ccccc4)cc3[n+]2CC)Oc2ccc(-c3ccccc3)cc21`, `C[C@@H]1CN([C@H](C)CO)C(=O)c2cc(NC(=O)Nc3ccccc3)ccc2O[C@@H]1CN(C)Cc1ccc(C(=O)Nc2ccccc2N)cc1` is 2.6-fold higher in AC35: 4.89 µM for the first, 12.7 µM for the second.

`COc1ccc([Si](C)(C)[C@H]2[C@H](CCO)O[C@@]3(C(=O)N(c4ccccc4)c4ccccc43)[C@@H]2C)cc1` and `C[C@H](CO)N1C[C@H](C)[C@H](CN(C)Cc2ccc(Oc3ccccc3)cc2)Oc2ccc(NC(=O)Cn3cnnn3)cc2CC1=O` are within 1.5-fold of each other in AC35: 15 µM for the first, 15.5 µM for the second.

First: Cc1nc(N)nc(N)c1-c1ccc(Cl)c(Cl)c1
Second: Oc1c(C(c2ccc(Cl)cc2)N2CCCC2)cc(Cl)c2cccnc12 (configuration not stated)
The AC35 of the first is 3.8-fold lower: 1.72 µM for the first, 6.54 µM for the second.

`C[C@@H]1CN([C@@H](C)CO)C(=O)c2cc(NS(=O)(=O)c3ccc(F)cc3)ccc2O[C@@H]1CN(C)Cc1ccc(C(=O)Nc2ccccc2N)cc1` and `C[C@H](CO)N1C[C@H](C)[C@H](CN(C)Cc2ccc(C(=O)Nc3ccccc3N)cc2)Oc2c(cccc2N(C)C)C1=O` are within 1.5-fold of each other in AC35: 7.54 µM for the first, 11.3 µM for the second.

`Cc1ccc(C(C)C)c(OCc2ccc(C(=O)N/N=C/c3ccc(O)cc3O)cc2)c1` and `Cc1cc(C)c2sc(NNC(=O)c3ccc(S(=O)(=O)N4CCc5ccccc5C4)cc3)nc2c1` are within 1.5-fold of each other in AC35: 4.02 µM for the first, 5.13 µM for the second.

First: C[C@H]1CN([C@@H](C)CO)S(=O)(=O)c2ccc(C#Cc3ccncc3)cc2O[C@@H]1CN(C)C(=O)Nc1ccc2c(c1)OCO2
Second: C[C@@H]1CN([C@H](C)CO)C(=O)Cc2cc(NC(=O)CCCCCC(=O)Nc3ccccc3N)ccc2O[C@@H]1CN(C)CC1CCCCC1
The AC35 of the first is 6.7-fold lower: 2.99 µM for the first, 20.1 µM for the second.

`O=C(Sc1cccc2cccnc12)c1ccccc1Br` and `C(=N\Nc1nc2ccccc2[nH]1)/c1ccccn1` are within 1.5-fold of each other in AC35: 7.7 µM for the first, 6.22 µM for the second.

First: N#C[C@@H]1[C@H](c2ccc(C#Cc3ccccc3F)cc2)[C@@H](CO)N1C(=O)c1cccnc1
Second: CN(C[C@H]1N[C@@H](CO)[C@@H]1c1ccc(C2=CCCC2)cc1)C(=O)c1cccc(F)c1
The AC35 of the first is 5.5-fold higher: 25.4 µM for the first, 4.63 µM for the second.

First: NC1=CC(=O)C(=O)c2cccnc21
Second: Cn1ccc2cc(-c3ccc4ncnc(NCc5cccs5)c4c3)ccc21
The AC35 of the first is 2.2-fold higher: 20.7 µM for the first, 9.58 µM for the second.

`COc1ccc(NC(=O)N2CCCCN3[C@@H](CO)[C@H](c4ccc(C5=CCCCC5)cc4)[C@@H]3C2)cc1` and `COc1ccc(S(=O)(=O)Nc2ccc3c(c2)C(=O)N([C@H](C)CO)C[C@@H](C)[C@@H](CN(C)CC2CCCCC2)OCCCC[C@H](C)O3)cc1` are within 1.5-fold of each other in AC35: 10 µM for the first, 14.1 µM for the second.

Compared with `C[C@]12CC[C@H](O)C[C@H]1CC[C@@H]1C2CC[C@]2(C)[C@@H](C3=CC(=O)OC3)[C@@H](O)C[C@]12O` (some centres not stated), `C[C@]12CC[C@H](O)C[C@H]1CC[C@@H]1[C@@H]2C[C@@H](O)[C@]2(C)[C@@H](C3=CC(=O)OC3)CC[C@]12O` is 1.6-fold lower in AC35: 1.86 µM for the first, 1.16 µM for the second.

`C=C1C(=O)OC2C1CCC(C)C1(O)C=CC(=O)C21C` (configuration not stated) and `CN(C)c1ccc(N=Nc2nc3ccccc3n2C)cc1` are within 1.5-fold of each other in AC35: 9.94 µM for the first, 12.5 µM for the second.
